From ChEMBL document CHEMBL1142118, “Halogenated monoterpene aldehydes from the South African marine alga Plocamium corallorhiza” (J Nat Prod, 2007)

Assay: Cytotoxicity against WHCO1 cells after 48 hrs by MTT assay
Assay type: cell-based
Conditions: Homo sapiens, WHCO1, 48 h

For `C=C(C)C(Br)CC(Br)/C(C)=C/C=O` (configuration not stated), the IC50 was 7.5 µM.

`CC(/C=C/C(Cl)C(C)(Cl)CBr)=C\C=O` (configuration not stated) gave an IC50 of 64.8 µM.
